# Experimental data from patent publication US7420031B2, “Intracellular delivery of small molecules, proteins, and nucleic acids” (Lonza Walkersville, Inc., priority 2003, dated 2008).
# Where a SMILES comes first, the peptide text is derived from it. Where no end group is shown, it is not given here. The star is where a group is joined. Biotin = O=C1N[C@H]2[C@H](CS[C@H]2CCCCC(=O)*)N1
# Experiments:
# NIH 3T3 cells [1] = settings: 20 nM complex with streptavidin-linked β-galactosidase, 1 hour at 37° C.
# Experimental: To determine the intracellular location of the complex, cells were immunostained for streptavidin. NIH 3T3 cells were seeded into 24-well tissue culture plates and incubated overnight. The cells were treated with 20 nM PTD-cargo moiety complex comprising the polypeptide sequence shown in SEQ ID NO:14 and streptavidin-linked β-galactosidase for 1 hour at 37° C. The cells were washed 3 times with PBS, and non-specific binding was blocked by a 30 minute incubation with normal goat serum at room temperature. Mouse anti-streptavidin monoclonal antibody (Monosan, Catalog No. 5043) was diluted to 1 μg/ml with PBS containing 20% normal goat serum. The diluted monoclonal antibody was added to the cells, and the cells were incubated for 1 hour at room temperature.
# The cells were washed 3 times with PBS and a secondary Alexa Fluor 568 conjugated goat anti-mouse IgG (Molecular Probes, Catalog No. A-11019) was diluted 1:200 in PBS with 20% normal goat serum. Following a 30 minute incubation at room temperature, the cells were washed 3 times with PBS and visualized by fluorescent microscopy.
# 293 HEK cells = experiment: PTD-mediated transport of streptavidin-β-galactosidase into 293 HEK cells (lysate absorbance at 405 nm); type: cell-based; settings: 50 nM complex with streptavidin-β-galactosidase, 30 minutes at 37° C.
# Experimental: To determine the effect of biotin location on transduction efficiency, biotin was added to either the amino terminus or the carboxy terminus of three PTDs. A (Gly)3 linker was added to the amino terminus for N-terminal biotinylated peptides. For C-terminal biotinylation, the last glycine in the C-terminal linker was replaced by lysine. The side chain of lysine was used for the attachment of the biotin group. A peptide with negligible transduction activity (Mi et al., Mol. Ther., 2:339-347, 2000) (SEQ ID NO:6) was used as a negative control. PTDs and β-galactosidase were complexed together with a streptavidin-biotin bridge.
# To test for transduction efficiency, 293 HEK cells were seeded into a 96-well plate at approximately 4500 cells/well and incubated overnight. To prepare peptide complexes, equimolar concentrations of biotinylated PTD and streptavidin-crosslinked β-galactosidase were mixed and diluted in cell culture medium. The mixtures were incubated for 30 minutes at 37° C. to allow formation of complexes. Each complex was added to a final concentration of 50 nM and incubated for 30 minutes at 37° C. To assay for β-galactosidase activity, the cells were washed 3 times with PBS and were lysed with 100 μl of assay reagent (Pierce). […] The absorbance at 405 nm was measured on a Wallac Victor spectroluminometer.
# NIH 3T3 cells [2] = experiment: PTD-β-galactosidase transduction into NIH 3T3 cells (lysate absorbance at 405 nm); type: cell-based; settings: general statement in description
# Experimental: N-terminally biotinylated direct and inverted isomers were compared to determine the transduction efficiency of inverted isomers of PTDs. PTDs and β-galactosidase were complexed together with a streptavidin-biotin bridge. NIH 3T3 cells were seeded into a 96-well plate and incubated as described above. The PTD-β-galactosidase complexes were formed (as described in Example 1) and added to a final concentration of 12.5 nM. […] The lysis reaction was stopped and the absorbance at 405 nm was measured. The transduction activity of inverted isomers is stronger than the transduction activity of direct PTDs.
# The activities of 2 PTDs were compared to determine if the introduction of a lysine residue juxtaposed to the biotin moiety affects transduction activity. The pairs of peptides differed by a glycine to lysine substitution within the biotin peptide linker. PTDs and β-galactosidase were complexed together with a streptavidin-biotin bridge. NIH 3T3 cells were seeded as described above. […] The lysis reaction was stopped, and the absorbance at 405 nm was measured. The presence of a lysine residue juxtaposed to the biotin caused about a two-fold enhancement in transduction activity.
# To further study the role of the lysine residue located in the biotin linker, the indirect PTDs and the direct PTDs with a lysine residue in the linker were compared. […]
# human dermal fibroblasts = experiment: Histochemical staining for β-galactosidase in cells transduced with PTD complex; type: cell-based; settings: 50 nM complex with streptavidin-β-galactosidase, 1 hour at 37° C., light microscopy
# Experimental: To determine the efficiency of transduction based on the percentage of cells that receive the reporter protein, cells were assayed by histochemical staining for the reporter protein.
# HUVEC and human dermal fibroblast cells were each seeded at 40,000 per well of a 24-well plate and incubated overnight. PTD complexes (SEQ ID NO:7-streptavidin-β-galactosidase or SEQ ID NO:6-streptavidin-β-galactosidase) were added to the wells at a final concentration of 50 nM and incubated for 1 hour at 37° C. The cells were washed 3 times in PBS, fixed, and stained for β-galactosidase using a β-galactosidase staining set (Roche) according to the manufacturer's instructions. Following development of β-galactosidase activity, the cells were washed with PBS and visualized by light microscopy.
# NIH 3T3 cells [3] = settings: PTD without cargo moiety, 0-1000 nM (nanomolar range), 48 hours
# Experimental: PTDs (SEQ ID NOS:7 and 10), in the absence of a cargo moiety, were added to NIH 3T3 cultures at final concentrations ranging from 0-1000 nM to determine if the PTDs were cytotoxic. NIH 3T3 cells were seeded and incubated overnight, and the peptides were added to the cultures. The cells were incubated for 48 hours, and cell viability was determined using an Alamar blue assay.
# NIH 3T3 cells [4] = settings: 20 nM complex with streptavidin-β-galactosidase, 1 hour at 37° C.
# Experimental: The transport activities of PTDs were compared to determine if introduction of a nuclear localization signal affect translocation of a PTD-cargo moiety complex. The cargo moiety was streptavidin-linked β-galactosidase. The cargo moiety was streptavidin-linked β-galactosidase. The peptides differed by the position of the nuclear localization signal. The nuclear localization signal was located on the amino terminus (down-stream of a lysine linker) or the carboxy terminus. NIH 3T3 cells were seeded as described above. Each PTD complex was added to a final concentration of 20 nM, and the cells were incubated for 1 hour at 37° C. Following incubation, the cells were washed 3 times in PBS and assayed for nuclear localization of β-galactosidase. β-galactosidase activity was measured at 405 nm in a colorimetric assay.
# Peptides containing two nuclear localization signals were tested to study the role of the multiple nuclear localization signals on peptide transport. NIH 3T3 cells were seeded as described above. A PTD-β-galactosidase complex was added to a final concentration of 20 nM, and the cells were incubated for 1 hour at 37° C. Following incubation, the cells were washed 3 times in PBS and assayed for nuclear localization of β-galactosidase.
# plasma membrane = settings: Wender et al., Proc. Natl. Acad. Sci USA 97:13003-13008, 2000; cited from earlier work
# [5] = Mi et al., Mol. Ther., 2:339-347, 2000; cited from earlier work
molecule,measurement,setting,value
Biotin-KGGRKMLKSTRRQRR [SEQ ID NO:14],intracellular location of the complex,NIH 3T3 cells [1],localized to the cytoplasm
Biotin-GGGYARAAARQARA [SEQ ID NO:9],function as a PTD (amount of β-galactosidase in the cell lysate vs negative control SEQ ID NO:6),293 HEK cells,did not function as a PTD
RKMLKSTRRQRR [SEQ ID NO:1],ability to function as a PTD relative to tat (SEQ ID NO:24) and WO 01/15511 peptide (SEQ ID NO:25),NIH 3T3 cells [2],more efficiently
Biotin-Gly-Gly-Gly-Tyr-Gly-Arg-Lys-Lys-Arg-Arg-Gln-Arg-Arg-Arg [SEQ ID NO:7],β-galactosidase reporter protein staining of cells,human dermal fibroblasts,positive
"CSCC[C@H](NC(=O)[C@H](CC(C)C)NC(=O)[C@H](CCCCN)NC(=O)[C@H](CO)NC(=O)[C@@H](NC(=O)[C@H](CCCNC(=N)N)NC(=O)[C@H](CCCNC(=N)N)NC(=O)[C@H](CCC(N)=O)NC(=O)[C@H](CCCNC(=N)N)NC(=O)[C@@H](N)CCCNC(=N)N)[C@@H](C)O)C(=O)N[C@@H](CCCCN)C(=O)N[C@@H](CCCNC(=N)N)C(=O)NCC(=O)NCC(=O)N[C@@H](CCCCNC(=O)CCCC[C@@H]1SC[C@@H]2NC(=O)N[C@@H]21)C(=O)O [SEQ ID NO:11, Arg-Arg-Gln-Arg-Arg-Thr-Ser-Lys-Leu-Met-Lys-Arg-Gly-Gly-Lys-Biotin] (H-RRQRRTSKLMKRGGK(Biotin)-OH)",effect on cell growth / cell viability,NIH 3T3 cells [3],did not inhibit cell growth
Biotin-KGGRKMLKSTRRQRRKKKRKV [SEQ ID NO:19],"translocation of the complex, effect of nuclear localization signal and its position",NIH 3T3 cells [4],functioned much better
"N=C(N)NCCC[C@H](NC(=O)CNC(=O)[C@@H](N)Cc1ccc(O)cc1)C(=O)N[C@@H](CCCCN)C(=O)N[C@@H](CCCCN)C(=O)N[C@@H](CCCNC(=N)N)C(=O)N[C@@H](CCCNC(=N)N)C(=O)N[C@@H](CCC(N)=O)C(=O)N[C@@H](CCCNC(=N)N)C(=O)N[C@@H](CCCNC(=N)N)C(=O)N[C@@H](CCCNC(=N)N)C(=O)NCC(=O)NCC(=O)N[C@@H](CCCCNC(=O)CCCC[C@@H]1SC[C@@H]2NC(=O)N[C@@H]21)C(=O)O [SEQ ID NO:8, Tyr-Gly-Arg-Lys-Lys-Arg-Arg-Gln-Arg-Arg-Arg-Gly-Gly-Lys-Biotin]",effect on cell growth / cell viability,NIH 3T3 cells [3],did not inhibit cell growth
"SEQ ID NO:23: a reverse isomer of a tat-derived peptide (reverse tat), Wender et al. (RRRQRRKKRGY; Human immunodeficiency virus)",efficiency of crossing the plasma membrane relative to tat (SEQ ID NO:24),plasma membrane,about three times
Biotin-GGARPLEHGSDKAT [SEQ ID NO:6],transduction activity,[5],negligible
